Twelve compounds from US20140005163A1 (NOVARTIS AG, priority 2010, published 2014) can be followed below.

For this assay, the system named is PKB Ser473 phosphorylation in Rat1-myr-HA-p110 beta cells. As to the kind of experiment: Reverse protein array assay, PKB Ser473 phosphorylation in Rat1-myr-p110 beta cells. The assay is classed as cell-based. As to conditions: 0.5 h, pAkt Ser473, 30 minutes incubation, read-out: p-PKB IC50. A digest of the protocol:
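Cells: Rat1-myr-HA-p110 alpha/beta/delta, seeded ≥20 h. Lysis on ice 10 min; reverse-phase protein array, 4 lysate dilutions; fluorescence read, relative intensity.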

Regarding `CCOc1cc(-c2ccc3ncc4c(c3c2)n(-c2c(C)nn(CC(=O)N(C)C)c2C)c(=O)n4C)cnc1C` [Example 85.3, 2-{4-[8-(5-Ethoxy-6-methyl-pyridin-3-yl)-3-methyl-2-oxo-2,3-dihydro-imidazo[4,5-c]quinolin-1-yl]-3,5-dimethyl-pyrazol-1-yl}-N,N-dimethyl-acetamide], the IC50 came out at 766 nM.

Consider `CCOCc1ncc(-c2ccc3ncc4c(c3c2)n(-c2cn(C)nc2C)c(=O)n4C)cc1OC` [Example 196.2, 1-(1,3-Dimethyl-1H-pyrazol-4-yl)-8-(6-ethoxymethyl-5-methoxy-pyridin-3-yl)-3-methyl-1,3-dihydro-imidazo[4,5-c]quinolin-2-one], for which the IC50 turned out to be 108 nM.

Regarding `Cc1nn(C)cc1-n1c(=O)n(C)c2cnc3ccc(-c4ccnc(OC(C)C)c4)cc3c21` [Example 92, 1-(1,3-Dimethyl-1H-pyrazol-4-yl)-8-(2-isopropoxy-pyridin-4-yl)-3-methyl-1,3-dihydro-imidazo[4,5-c]quinolin-2-one], the IC50 was determined as 715 nM.

In the case of `Cn1nccc1-n1c(=O)n(C)c2cnc3ccc(-c4ccc(NCCO)nc4)cc3c21` [Example 21.1, 8-[6-(2-Hydroxy-ethylamino)-pyridin-3-yl]-3-methyl-1-(2-methyl-2H-pyrazol-3-yl)-1,3-dihydro-imidazo[4,5-c]quinolin-2-one], the IC50 is 173 nM.

With `Cc1nn(C)cc1-n1c(=O)n(C)c2cnc3ccc(-c4cncc(NC5CCC5)c4)cc3c21` [Example 172, 8-(5-Cyclobutylamino-pyridin-3-yl)-1-(1,3-dimethyl-1H-pyrazol-4-yl)-3-methyl-1,3-dihydro-imidazo[4,5-c]quinolin-2-one], the IC50 is 13 nM.

In the case of `COCc1ccc(-c2ccc3ncc4c(c3c2)n(-c2cn(C)nc2Cl)c(=O)n4C)cn1` [Example 203, 1-(3-Chloro-1-methyl-1H-pyrazol-4-yl)-8-(6-methoxymethyl-pyridin-3-yl)-3-methyl-1,3-dihydro-imidazo[4,5-c]quinolin-2-one], the IC50 was determined as 13 nM.

For `Cc1nn(C(C)C)cc1-n1c(=O)n(C)c2cnc3ccc(-c4cnc(N)c(CO)c4)cc3c21` [Example 169.1, 8-(6-Amino-5-hydroxymethyl-pyridin-3-yl)-1-(1-isopropyl-3-methyl-1H-pyrazol-4-yl)-3-methyl-1,3-dihydro-imidazo[4,5-c]quinolin-2-one], the IC50 was determined as 37 nM.

On to `Cc1nn(C)cc1-n1c(=O)n(C)c2cnc3ccc(-c4cnc(N)c(Cl)c4)cc3c21` [Example 148.2, 8-(6-Amino-5-chloro-pyridin-3-yl)-1-(1,3-dimethyl-1H-pyrazol-4-yl)-3-methyl-1,3-dihydro-imidazo[4,5-c]quinolin-2-one], for which the IC50 came to 6 nM.

As for `CCOc1cc(-c2ccc3ncc4c(c3c2)n(-c2cn(C)nc2C)c(=O)n4C)cnc1CC` [Example 187, 1-(1,3-Dimethyl-1H-pyrazol-4-yl)-8-(5-ethoxy-6-ethyl-pyridin-3-yl)-3-methyl-1,3-dihydro-imidazo[4,5-c]quinolin-2-one], the IC50 is 37 nM.

`CCN(C)c1ccc(-c2ccc3ncc4c(c3c2)n(-c2cn(C)nc2C)c(=O)n4C)cn1` [Example 98.1, 1-(1,3-Dimethyl-1H-pyrazol-4-yl)-8-[6-(ethyl-methyl-amino)-pyridin-3-yl]-3-methyl-1,3-dihydro-imidazo[4,5-c]quinolin-2-one]: the half-inhibitory concentration (IC50) turned out to be 13 nM.

Regarding `CCn1cc(-n2c(=O)n(C)c3cnc4ccc(-c5cncc(N)c5)cc4c32)c(C)n1` [Example 45.2, 8-(5-Amino-pyridin-3-yl)-1-(1-ethyl-3-methyl-1H-pyrazol-4-yl)-3-methyl-1,3-dihydro-imidazo[4,5-c]quinolin-2-one], the IC50 was determined as 36 nM.

For the compound `Cc1nn(C)c(C)c1-n1c(=O)n(C)c2cnc3ccc(-c4cnc(N)c(Cl)c4)cc3c21` [Example 148.1, 8-(6-Amino-5-chloro-pyridin-3-yl)-3-methyl-1-(1,3,5-trimethyl-1H-pyrazol-4-yl)-1,3-dihydro-imidazo[4,5-c]quinolin-2-one], the IC50 is 139 nM.

Usually IC50 stands for the midpoint of a concentration-inhibition curve.
